Experimental data from US20090291857A1, “METHODS TO IDENTIFY INHIBITORS OF THE UNFOLDED PROTEIN RESPONSE” (THE BOARD OF TRUSTEES OF THE LELAND STANFORD JUNIOR …, priority 2006, published 2009).
pIC50: −log10 of the molar value.

Experiments:
XBP-luciferase reporter = XBP-luciferase reporter assay under Tm or hypoxia; assay type: cell-based, human
Method: HT1080 cells stably expressing the XBP-luciferase construct were grown in 60 mm dishes to 60-70% confluency. Following hypoxia treatment, cells were washed twice with PBS, lysed in 400 μl 1× reporter lysis buffer (RLB) (Promega, Madison Wis.) for 30 min at 24° C. Lysates (100 μl) were mixed with an equal volume of luciferase substrate (Promega), and assayed using a luminometer. For 5×-UPRE-luciferase reporter assays, cells were co-transfected with the appropriate reporter plasmid and a control plasmid (pSV40-beta-gal) using Lipofectamine 2000 (Invitrogen, San Diego, Calif.). Twenty-four hours after transfection, fresh media was added, and cells were treated with Tm or shifted to hypoxia. After treatment, cells were lysed in 1× RLB and analyzed for luciferase activity as described above. Beta-galactosidase activity was determined using the beta-galactosidase enzyme assay system (Promega).
A. XBP-luciferase reporter construct. […] After 24 hours, luciferase activity was analyzed in an automated plate reader. For each cell line, values are expressed as the percent inhibition of the median for Tm/Tg-treated wells, corrected for background. […] Values are expressed as the fold increases over uninduced levels. […] Cells were harvested, lysed, and analyzed by immunoblotting with antisera specific for HIF-1α (top), XBP-1s (middle) or actin (bottom). […]

[1] = test system: IRE1α/XBP-1 pathway (XBP1-luciferase reporter); assay: High throughput XBP-luciferase reporter screen, tunicamycin/thapsigargin induced (HTS and IRE IC50); assay type: cell-based, human
Method: Specifically, HT1080 fibrosarcoma cells stably transfected with the unspliced XBP-1-luciferase reporter construct (3000/well) were plated onto a solid white 384 well microplate with a multidrop dispenser (40 μL per well). The plates were then placed into an automated incubator. After 24 hours of growth, a mixture of tunicamycin (1 μg/ml) and thapsigargin (100 nM) inducers were added, and candidate compounds were then added to the plates. After 24 hours, luciferase reagent (10 μl) was added to each well and the plates were read in a Molecular Devices Analyst GT (0.2 second read per well).
As described above in Example 2, HT1080 fibrosarcoma cells stably expressing the XBP-luciferase reporter were plated in a 384 well microplate (4000 cells/well). After 24 hours, cells were treated with a mixture of tunicamycin (4 μg/ml) and thapsigargin (0.4 μM), followed by the addition of one compound per well (10 μM). We screened a total of 66,000 diverse molecules obtained from Specs, Chembridge and ChemRX. Twenty-four hours post-induction, BriteGlo luciferase substrate (10 μl) was added to each well and the signal intensity determined in a plate reader (0.2 s read per well). […] We retested 431 compounds from the initial screen, and selected 58 compounds for additional analysis, including calculation of IC50 values and inhibition of a CMV-luciferase reporter.
A. XBP-luciferase reporter construct. Firefly luciferase was inserted downstream of the IRE1α splice site in human XBP-1 to enable the conditional translation of luciferase under ER stress in an IRE1α-dependent manner. B. Selective inhibition of the XBP-luciferase reporter by irestatin 9389. HT1080 human fibrosarcoma cells stably expressing the XBP-luciferase reporter or CMV-luciferase were cultured in the presence of Tm (4 μg/ml) and Tg (0.4 μM) and irestatin 9389 at the indicated concentrations. After 24 hours, luciferase activity was analyzed in an automated plate reader. For each cell line, values are expressed as the percent inhibition of the median for Tm/Tg-treated wells, corrected for background. C. Structure of irestatin 9389. D. XBP-luciferase reporter assay. HT1080 cells stably expressing the XBP-luciferase reporter were exposed to Tm (4 μg/ml) for 24 hours or hypoxia (0.1% oxygen) for 24 or 48 hours, in the presence of DMSO or irestatin 9389 (1 μM) as indicated. Values are expressed as the fold increases over uninduced levels. E. 5X-UPRE reporter assay. HT1080 cells were co-transfected with 5X-UPRE luciferase and SV40-beta-gal reporter plasmids, followed by exposure to Tm or hypoxia as in D. For each condition, luciferase activity is normalized to beta-galactosidase expression levels as an internal control for transfection efficiency. F. Western immunoblot analysis of XBP-1s. HT1080 cells were left untreated (lane 2) or exposed to Tm (4 μg/ml) for 20 hours in the presence of DMSO vehicle (lane 1) or the indicated irestatins (2 μM; lanes 3-6). Cell lysates were resolved by SDS-PAGE and immunoblotting using antisera specific for XBP-1s (top panel) or actin and GAPDH (bottom panel) as loading controls. […] HT1080 cells were treated with DMSO or exposed to irestatin 9389 (2 μM; lane 3) in normoxia (N) or under hypoxia for 24 hours (H 24; lanes 2,3). Cells were harvested, lysed, and analyzed by immunoblotting with antisera specific for HIF-1α (top), XBP-1s (middle) or actin (bottom). H. Northern blot analysis of XBP-1s transcription targets. Cells were exposed to Tm (4 μg/ml) or hypoxia for 24 hours (H 24) in the absence or presence of irestatin 9389 (2 μM). Total RNA was analyzed by Northern blotting using radiolabeled probes specific for P58^IPK or DER-1. Total rRNA is shown as loading control.
As described above, a HT1080 fibrosarcoma cell line stably expressing a fusion of unprocessed XBP-1 inserted upstream of firefly luciferase has been developed to identify small molecule inhibitors of the IRE1α/XBP-1 signaling module. […]

`Cc1csc(NC(=O)CSc2nc3c(c(C(F)(F)F)c2C#N)CCC3)n1` [Compound 9389] was tested, and the “activation of the XBP-luciferase reporter under hypoxia” value (XBP-luciferase reporter; 1 μM, hypoxia 24 or 48 hours) was “robustly inhibited this response”, the inhibition at 1 µM (XBP-luciferase reporter; Homo sapiens, Tm 24 hours, read-out: inhibition of Tm-mediated activation of the XBP-luciferase reporter) was greater than 90% and the “inhibition of IRE1α / IRE1α/XBP-1 signaling module in screen” value ([1]; HT1080 XBP-luciferase, Tm/Tg) was “potent and specific inhibition of IRE1α”. For the same compound, the inhibition at 10 µM ([1]; Homo sapiens, 24 h, inhibition of XBP1-luciferase reporter, read-out: Activity Class) was 75 to 100%, the pIC50 ([1]; Homo sapiens, HT-1080, 24 h, HT1080, Tm 4 μg/ml and Tg 0.4 μM, 24 hours, read-out: mean inhibitory concentration (IC50) of XBP-luciferase activity) was roughly 7.60 and the inhibition at 20 µM ([1]; Homo sapiens, IRE IC50 assay, Conc 20 uM) was 87.1%.
